Test results: US20180250308A1, “NR2B SELECTIVE NMDA-RECEPTOR ANTAGONISTS FOR TREATMENT OF IMMUNE-MEDIATED INFLAMMATORY DISEASES” (WESTFALISCHE WILHELMS-UNIVERSITAT MUNSTER, priority 2015, published 2018)

Legend:
[1] = molecular target: T1, polyamine binding site of the NR2B subunit of the NMDA receptor (Homo sapiens, UniProt Q05586+Q13224); experiment: Filtration-based receptor binding assay with [3H]-Ifenprodil, NR2B subunit; conditions: membranes of L(tk-) cells expressing NR1-1a/NR2B, Ki by Cheng-Prusoff, mean ± SEM, read-out: affinity to the NR2B binding site of the NMDA receptor
T1 construct: host or cells: mouse L(tk-) cells; expression induced with dexamethasone, then membrane homogenate prepared
Protocol: The determination was performed using a filtration-based receptor binding assay on 96-well-multiplates for the polyamine binding site of the NR2B subunit of the NMDA receptor using [^3H]-Ifenprodil as radioligand.
Mouse L(tk-) cells stably transfected with the dexamethasone-inducible eukaryotic expression vectors pMSG NR1-1a, pMSG NR2B in a 1:5 ratio were a generous gift from D. […] Steinhilber (Department of Pharmacy, University of Frankfurt, Germany). The transformed L(tk-) cells were grown in Modified Earl's Medium (MEM) containing 10% of standardized FCS (Biochrom AG, Berlin, Germany). The expression of the NMDA receptor at the cell surface was induced after the cell density of the adherent growing cells had reached approximately 90% of confluency. […]
For the binding assay, the cell pellet was resuspended in PBS buffer and the number of cells was determined using an improved Neubauer's counting chamber (VWR, Darmstadt, Germany). […]
The competitive binding assay was performed with the radioligand [^3H]-Ifenprodil (60 Ci/mmol; Perkin Elmer) using standard 96-well-multiplates (Diagonal, Muenster, Germany). […] The bound radioactivity trapped on the filters was counted in the scintillation analyzer (Microbeta Counter, Perkin Elmer). […] The non-specific binding was determined with 10 μM unlabeled Ifenprodil. […]

σ1 receptor = molecular target: T2, σ1 receptor (Cavia porcellus, UniProt Q60492); experiment: Binding assay with [3H]-(+)-pentazocine, σ1 receptor; conditions: guinea pig brain membranes, read-out: affinity to the σ1 receptor
T2 construct: Five guinea pig brains (Harlan Winkelmann, Borchen, Germany) were homogenized; tissue Harlan Winkelmann, Borchen, Germany; host or cells: guinea pig brain membrane preparation
Protocol: Five guinea pig brains (Harlan Winkelmann, Borchen, Germany) were homogenized with the potter (500-800 rpm, 10 up-and-down strokes) in 6 volumes of cold 0.32 M sucrose. […] This procedure was repeated twice.
The incubation was terminated by rapid filtration through the presoaked filtermats using a cell harvester.

T2 sequence (Q60492 whole entry): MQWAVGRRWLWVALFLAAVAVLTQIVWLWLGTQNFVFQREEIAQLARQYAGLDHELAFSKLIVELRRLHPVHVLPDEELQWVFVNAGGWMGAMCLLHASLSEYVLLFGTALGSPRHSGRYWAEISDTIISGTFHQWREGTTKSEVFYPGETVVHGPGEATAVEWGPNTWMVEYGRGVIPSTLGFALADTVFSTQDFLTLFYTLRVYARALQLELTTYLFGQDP
T1 sequence (Q13224 27-1484, other chains not shown): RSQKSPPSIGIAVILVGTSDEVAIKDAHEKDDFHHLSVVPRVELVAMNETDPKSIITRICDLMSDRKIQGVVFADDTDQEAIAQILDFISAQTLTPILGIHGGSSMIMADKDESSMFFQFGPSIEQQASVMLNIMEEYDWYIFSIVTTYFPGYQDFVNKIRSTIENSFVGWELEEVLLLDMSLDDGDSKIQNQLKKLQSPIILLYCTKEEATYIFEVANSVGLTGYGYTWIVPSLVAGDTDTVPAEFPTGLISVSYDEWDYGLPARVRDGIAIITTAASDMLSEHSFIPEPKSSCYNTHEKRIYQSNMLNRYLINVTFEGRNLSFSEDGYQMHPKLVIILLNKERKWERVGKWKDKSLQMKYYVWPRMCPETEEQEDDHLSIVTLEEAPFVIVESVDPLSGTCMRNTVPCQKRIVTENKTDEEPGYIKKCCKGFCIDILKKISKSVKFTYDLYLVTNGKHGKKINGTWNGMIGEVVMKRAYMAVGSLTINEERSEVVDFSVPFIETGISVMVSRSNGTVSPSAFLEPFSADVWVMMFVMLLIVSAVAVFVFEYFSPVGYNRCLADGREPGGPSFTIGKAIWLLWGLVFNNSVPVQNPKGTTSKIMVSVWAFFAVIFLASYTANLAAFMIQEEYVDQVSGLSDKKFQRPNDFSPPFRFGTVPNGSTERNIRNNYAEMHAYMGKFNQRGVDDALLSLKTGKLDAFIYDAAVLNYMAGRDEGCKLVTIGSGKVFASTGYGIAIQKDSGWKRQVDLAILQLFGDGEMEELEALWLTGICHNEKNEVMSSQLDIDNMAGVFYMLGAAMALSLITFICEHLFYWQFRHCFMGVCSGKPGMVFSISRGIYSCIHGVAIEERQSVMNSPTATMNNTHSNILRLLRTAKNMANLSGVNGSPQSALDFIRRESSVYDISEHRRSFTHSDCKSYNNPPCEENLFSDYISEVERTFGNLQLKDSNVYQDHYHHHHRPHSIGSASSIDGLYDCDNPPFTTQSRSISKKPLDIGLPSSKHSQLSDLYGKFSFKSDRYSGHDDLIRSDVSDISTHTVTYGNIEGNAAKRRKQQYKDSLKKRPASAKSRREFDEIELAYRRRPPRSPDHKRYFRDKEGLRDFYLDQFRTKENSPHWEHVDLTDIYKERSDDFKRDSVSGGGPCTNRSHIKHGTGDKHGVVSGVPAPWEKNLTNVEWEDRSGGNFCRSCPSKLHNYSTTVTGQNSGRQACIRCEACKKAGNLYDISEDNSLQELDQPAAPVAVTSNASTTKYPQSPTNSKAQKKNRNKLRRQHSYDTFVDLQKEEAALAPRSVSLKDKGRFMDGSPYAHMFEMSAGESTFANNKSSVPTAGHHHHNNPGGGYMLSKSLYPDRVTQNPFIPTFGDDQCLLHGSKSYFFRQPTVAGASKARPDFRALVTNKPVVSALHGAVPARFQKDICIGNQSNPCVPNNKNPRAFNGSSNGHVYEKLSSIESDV

SMILES: COc1ccc2c(c1)CCN(CCCCc1ccccc1)CC2O (centres unmarked) [formula (4)]
- Ki [1]: 15.3 ± 1.2 nM
- Ki (σ1 receptor): 194 nM
